# Where a SMILES comes first, the peptide text is derived from it.
# How the values were obtained:
# [1] = tested on: hTAS1R2 and tas1r3-hN-rTM; assay: Calcium mobilization (FLIPR), chimera with human N-terminus and rat transmembrane region; type: cell-based; conditions: asp 15 mM; cyc 30 mM; neo 0.1 mM; sac 10 mM; suc 100 mM; stev 1 mM
# Excerpt: The receptor chimeras of Tas1r3 were constructed using recombinant PCR. In the first reactions the N-terminal and the C-terminal part containing the seven transmembrane domains of hTAS1R3 and rTas1r3 were amplified from plasmid DNA using Ultra Pfu Polymerase (Stratagene). For the hTAS1R3 and rTas1r3 N-termini the forward vector-anchored primer (CMV: […]) and a reverse gene specific primer ([…]) were used. The hTAS1R3 and rTas1r3 C-terminal part were amplified with forward gene specific primer ([…]) and a reverse vector-anchored primer ([…]). PCR conditions were: 5 min, 94°C, 24 cycles 1 min 94°C, 0.5 min 64°C, 2 min 72°C; 5 min 72°C. The amplicons were purified using the Highpure PCR Product Purification Kit (Roche) and used as template for the second PCR. To create the chimeric receptor tas1r3-hN-rTM, equimolar amounts (~50 ng) of the hTAS1R3 N-terminus and rTas1r3 transmembrane domains were combined without additional oligonucleotides. PCR conditions were: 5 min 94°C; 15 cycles of 2 min 64°C, 2 min 72°C and 0.5 min 94°C; followed by 5 min 64°C and 10 min 72°C. […] These chimeras were cloned into pcDNA5/FRT.
# The cDNAs were transiently transfected into HEK293T cells stably expressing the chimeric G-protein subunit Gα16gust44 [20] using Lipofectamine 2000 (Invitrogen) according to the manufacturer's protocol. 3–4 hours after transfection, DMEM was replaced by low-glucose DMEM supplemented with GlutaMAX and 10% dialyzed FBS (Invitrogen). 22–44 hours later, cells were loaded for 1 hour with the calcium sensitive dye Fluo4-AM (2 μg/ml in DMEM, Molecular Probes). Cells were washed 3x in solution C1 (130 mM NaCl, 5 mM KCl, 10 mM Hepes, 2 mM CaCl2, and 5 mM Glucose, pH 7,4). Calcium mobilization was monitored by an automated fluorometric imaging plate reader (FLIPR, Molecular Devices). Ligands (Sigma-Aldrich, Merck) were dissolved in C1 solution. All data were collected from at least two independent experiments carried out in triplicate. The obtained calcium signals were corrected for the response of mock transfected cells and normalized to the fluorescence of cells prior to the stimulus using ΔF/F=(F-F0)/F0. […]
# All sweeteners were used at concentrations which were close to the maximal obtainable signal. (c) Alignment of amino acid sequences of the human, rat, and mouse Tas1r3 transmembrane regions. Color code: white, identical; grey, conservative; dark-grey, similar; black, non-similar. TM, predicted transmembrane domain, indicated by a black bar. Dots indicate the location of the primer used to generate the chimeric rat-human Tas1r3 receptors. Asterisks denote amino acid positions that are identical in rat and mouse but variable between humans and rodents and are located in the extracellular loops or the upper part of the transmembran regions. Boxes indicate the several rTas1r3 mutants m1 – m7, including the amino acid substitutions. m6/1 – m6/3 signified the reconverted amino acid of mutant m6.
# hTAS1R2-hTAS1R3 = target: T1, hTAS1R2-hTAS1R3 (Homo sapiens, UniProt Q7RTX0+Q8TE23); assay: Calcium mobilization (FLIPR) in transfected HEK293T-Gα16gust44 cells, human sweet receptor; conditions: asp 15 mM; cyc 30 mM; neo 0.1 mM; sac 10 mM; suc 100 mM; stev 1 mM
# T1 sequence (Q8TE23 20-839): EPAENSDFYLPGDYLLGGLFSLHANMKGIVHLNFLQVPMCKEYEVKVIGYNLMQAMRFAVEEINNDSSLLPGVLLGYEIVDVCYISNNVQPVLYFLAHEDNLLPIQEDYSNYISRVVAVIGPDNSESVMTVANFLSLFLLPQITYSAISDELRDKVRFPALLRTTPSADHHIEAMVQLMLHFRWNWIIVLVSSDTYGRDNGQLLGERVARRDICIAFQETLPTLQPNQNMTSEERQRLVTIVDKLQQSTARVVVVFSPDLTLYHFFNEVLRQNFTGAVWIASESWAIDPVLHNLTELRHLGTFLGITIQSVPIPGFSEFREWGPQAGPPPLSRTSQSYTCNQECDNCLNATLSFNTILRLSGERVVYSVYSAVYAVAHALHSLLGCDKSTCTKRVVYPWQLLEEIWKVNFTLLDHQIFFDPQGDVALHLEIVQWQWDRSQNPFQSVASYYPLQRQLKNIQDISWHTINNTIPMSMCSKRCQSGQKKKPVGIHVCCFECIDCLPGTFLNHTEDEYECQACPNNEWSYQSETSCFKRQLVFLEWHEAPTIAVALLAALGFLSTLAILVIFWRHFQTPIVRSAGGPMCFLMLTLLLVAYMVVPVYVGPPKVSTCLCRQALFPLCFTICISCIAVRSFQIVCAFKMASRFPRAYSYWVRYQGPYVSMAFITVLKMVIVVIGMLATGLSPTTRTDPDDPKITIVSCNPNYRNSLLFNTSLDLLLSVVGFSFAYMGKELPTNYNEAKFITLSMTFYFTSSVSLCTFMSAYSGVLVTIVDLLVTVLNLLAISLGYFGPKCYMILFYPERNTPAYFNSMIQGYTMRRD
# T1 sequence (Q7RTX0 21-852): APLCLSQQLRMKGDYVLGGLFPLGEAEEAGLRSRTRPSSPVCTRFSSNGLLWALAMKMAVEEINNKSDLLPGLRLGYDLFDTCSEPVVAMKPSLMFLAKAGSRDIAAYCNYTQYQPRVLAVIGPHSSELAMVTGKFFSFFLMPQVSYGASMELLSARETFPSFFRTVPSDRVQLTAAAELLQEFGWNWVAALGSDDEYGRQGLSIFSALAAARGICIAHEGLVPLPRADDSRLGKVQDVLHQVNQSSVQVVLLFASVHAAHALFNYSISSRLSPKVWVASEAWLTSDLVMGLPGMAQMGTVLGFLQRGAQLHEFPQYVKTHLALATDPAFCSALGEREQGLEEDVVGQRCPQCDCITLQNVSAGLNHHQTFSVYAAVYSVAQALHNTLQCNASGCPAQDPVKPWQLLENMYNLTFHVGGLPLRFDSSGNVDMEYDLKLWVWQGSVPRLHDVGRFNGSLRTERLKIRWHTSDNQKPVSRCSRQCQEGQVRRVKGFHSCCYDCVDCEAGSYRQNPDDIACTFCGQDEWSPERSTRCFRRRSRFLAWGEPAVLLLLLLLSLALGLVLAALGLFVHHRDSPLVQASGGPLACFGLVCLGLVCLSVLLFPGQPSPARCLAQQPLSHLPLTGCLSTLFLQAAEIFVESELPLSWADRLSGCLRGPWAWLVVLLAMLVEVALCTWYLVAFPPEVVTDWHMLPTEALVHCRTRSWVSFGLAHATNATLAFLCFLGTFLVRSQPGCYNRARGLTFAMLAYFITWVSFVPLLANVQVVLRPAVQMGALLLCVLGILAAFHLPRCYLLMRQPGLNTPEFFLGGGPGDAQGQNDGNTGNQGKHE
SMILES,activation of receptor (calcium response) [1],activation of receptor (calcium response) (hTAS1R2-hTAS1R3)
COC(=O)[C@H](Cc1ccccc1)NC(=O)[C@@H](N)CC(=O)O [aspartame] (HELM PEPTIDE1{D.F.[CO[*:1]]}$$$$V2.0),responded,activated the human receptor
O=S(=O)(O)NC1CCCCC1 [cyclamate],not,activated the human receptor

# The next lines start with the values.
activation of receptor (calcium response) [1],activation of receptor (calcium response) (hTAS1R2-hTAS1R3),SMILES
responded,activated the human receptor,C=C1C[C@@]23CC[C@H]4[C@@](C)(CCC[C@@]4(C)C(=O)O[C@@H]4O[C@H](CO)[C@@H](O)[C@H](O)[C@H]4O)[C@@H]2CC[C@]1(O[C@@H]1O[C@H](CO)[C@@H](O)[C@H](O)[C@H]1O[C@@H]1O[C@H](CO)[C@@H](O)[C@H](O)[C@H]1O)C3 [stevioside]
responded,activated the human receptor,OC[C@H]1O[C@@](CO)(O[C@H]2O[C@H](CO)[C@@H](O)[C@H](O)[C@H]2O)[C@@H](O)[C@@H]1O [sucrose]
not,activated the human receptor,COc1ccc(CCC(=O)c2c(O)cc(O[C@@H]3O[C@H](CO)[C@@H](O)[C@H](O)[C@H]3O[C@@H]3O[C@@H](C)[C@H](O)[C@@H](O)[C@H]3O)cc2O)cc1O [neohesperidine dihydrochalcone]
